Reference: patent US20220281831A1, “FUSED-GLUTARIMIDE CRBN LIGANDS AND USES THEREOF” (Kymera Therapeutics, Inc., priority 2019, published 2022)

Biological target: His-tagged CRBN-DDB1 complex (Homo sapiens, UniProt Q96SW2)
Test: Time-Resolved Fluorescence Resonance Energy Transfer (TR-FRET / HTRF) CRBN binding assay, displacement of Cy5-labeled thalidomide
Conditions: His-CRBN-DDB1, Cy5-thalidomide 8 nM, 1 hour room temperature
Description: Time-Resolved Fluorescence Resonance Energy Transfer (TR-FRET) Assay.
Equal volumes of His-tagged CRBN-DDB1 complex (56 nM) was mixed with Eu-cryptate labeled Anti-6HIS-monoclonal antibody (50× dilution from the commercial stock solution, Vender: Cisbio, Cat. #61HI2KLA) in a final buffer containing 20 mM HEPES pH 7.0, 150 mM NaCl, 0.005% Tween-20. […] The mixture were incubated at room temperature for 1 hour. FRET signals were measured on an EnVision plate reader (Perkin Elmer) by exciting at 340 nm and recording emission at both 615 nm as no FRET control and 665 nm as the FRET signals with a 60 microsecond delay. FRET efficiency was calculated as the ratio of fluorescent signals at […]. Quantitative loss of FRET efficiency as a function of compound concentrations was fitted by a four-parameter Logistic Function using GraphPad Prism 7.0 and the IC50 values were reported for each compound.
The compound numbers correspond to the compound numbers in Table 1.

Chain of His-tagged CRBN-DDB1 complex (Q96SW2 whole entry): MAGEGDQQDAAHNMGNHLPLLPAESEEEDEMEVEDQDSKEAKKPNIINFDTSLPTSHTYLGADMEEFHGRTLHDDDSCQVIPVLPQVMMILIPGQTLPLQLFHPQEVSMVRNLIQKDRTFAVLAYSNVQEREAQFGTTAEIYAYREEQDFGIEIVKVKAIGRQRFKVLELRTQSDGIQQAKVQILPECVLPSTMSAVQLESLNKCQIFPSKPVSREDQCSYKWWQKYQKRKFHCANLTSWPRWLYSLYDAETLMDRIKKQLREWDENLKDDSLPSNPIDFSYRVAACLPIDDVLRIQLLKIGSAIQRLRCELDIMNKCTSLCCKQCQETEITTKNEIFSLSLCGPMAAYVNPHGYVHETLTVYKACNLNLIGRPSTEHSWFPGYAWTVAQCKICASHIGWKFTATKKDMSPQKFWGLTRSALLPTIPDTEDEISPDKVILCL
Chain of His-tagged CRBN-DDB1 complex (Q16531 whole entry partner): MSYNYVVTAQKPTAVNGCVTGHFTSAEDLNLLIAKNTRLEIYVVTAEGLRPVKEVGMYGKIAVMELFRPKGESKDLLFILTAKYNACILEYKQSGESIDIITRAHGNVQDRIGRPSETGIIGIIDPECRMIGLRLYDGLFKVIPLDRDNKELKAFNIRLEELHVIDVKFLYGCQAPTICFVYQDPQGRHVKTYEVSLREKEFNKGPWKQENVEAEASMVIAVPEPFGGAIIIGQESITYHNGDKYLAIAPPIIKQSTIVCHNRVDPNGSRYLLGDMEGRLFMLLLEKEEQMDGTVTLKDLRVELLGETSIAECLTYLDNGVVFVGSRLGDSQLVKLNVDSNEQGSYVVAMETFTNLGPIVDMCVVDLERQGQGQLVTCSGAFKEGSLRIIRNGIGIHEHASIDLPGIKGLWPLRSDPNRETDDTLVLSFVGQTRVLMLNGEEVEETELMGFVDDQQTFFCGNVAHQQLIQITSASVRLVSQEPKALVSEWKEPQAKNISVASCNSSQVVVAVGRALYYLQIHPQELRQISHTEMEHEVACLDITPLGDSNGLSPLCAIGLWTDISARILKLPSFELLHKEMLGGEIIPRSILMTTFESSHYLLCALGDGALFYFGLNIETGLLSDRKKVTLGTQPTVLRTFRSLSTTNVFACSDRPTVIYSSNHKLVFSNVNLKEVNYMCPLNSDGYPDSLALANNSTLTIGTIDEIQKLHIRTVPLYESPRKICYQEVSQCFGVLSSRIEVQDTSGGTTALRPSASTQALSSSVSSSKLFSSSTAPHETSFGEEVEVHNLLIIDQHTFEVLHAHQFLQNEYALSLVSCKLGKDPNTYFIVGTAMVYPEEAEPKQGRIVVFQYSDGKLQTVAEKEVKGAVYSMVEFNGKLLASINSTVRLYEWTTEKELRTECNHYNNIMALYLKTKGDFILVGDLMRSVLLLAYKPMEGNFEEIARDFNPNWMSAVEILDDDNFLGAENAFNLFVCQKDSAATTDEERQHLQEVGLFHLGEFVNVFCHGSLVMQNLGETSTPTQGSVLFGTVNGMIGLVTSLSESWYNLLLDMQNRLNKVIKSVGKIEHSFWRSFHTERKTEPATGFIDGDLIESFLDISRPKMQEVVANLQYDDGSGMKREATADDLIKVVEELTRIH

| Structure (SMILES) | IC50 |
| --- | --- |
| O=C1NC(=O)[C@@H]2CN(C3CCN(Cc4ccccc4)CC3)C[C@H]12 [Compound I-296] | > 100 µM |
| O=C1CC2(CCN(c3ccc(Br)cc3)CC2)CC(=O)N1 [Compound I-86] | > 100 µM |
| O=C1CC2(CCN(C(=O)COCc3ccccc3)CC2)CC(=O)N1 [Compound I-334] | > 100 µM |
| Cc1ccc(CN2CCC3(CC2)CC(=O)NC(=O)C3)cc1 [Compound I-338] | > 100 µM |
| O=C1CC2(CCN(c3cccc(Cl)c3)CC2)CC(=O)N1 [Compound I-89] | > 100 µM |
| O=C1NC(=O)[C@@H]2CN(C(=O)c3ccco3)C[C@H]12 [Compound I-308] | > 100 µM |
| O=C1NC(=O)[C@@H]2CN(c3ccc(F)cc3)C[C@H]12 [Compound I-129] | > 100 µM |
| O=C1CC2(CCN(Cc3ccc(Oc4ccccc4)cc3)CC2)CC(=O)N1 [Compound I-344] | > 100 µM |
| COc1ccc(C(=O)N2CCC3(CC2)CC(=O)NC(=O)C3)cn1 [Compound I-355] | > 100 µM |
| CNC(=O)c1cccc(N2C[C@@H]3C(=O)NC(=O)[C@@H]3C2)c1 [Compound I-177] | > 100 µM |
| O=C1NC(=O)[C@@H]2CN(C(=O)c3cc4ccccc4cn3)C[C@H]12 [Compound I-168] | > 100 µM |
| O=C1CC2(CCN(c3ccc(-c4ccccc4)cc3)CC2)CC(=O)N1 [Compound I-98] | > 100 µM |
| O=C1NC(=O)[C@@H]2CN(Cc3ccc(F)c4ccccc34)C[C@H]12 [Compound I-313] | > 100 µM |
| O=C1NC(=O)[C@@H]2CN(C(=O)c3cnccn3)C[C@H]12 [Compound I-307] | > 100 µM |
| CS(=O)(=O)c1ccc(N2CCC3(CC2)CC(=O)NC(=O)C3)cc1 [Compound I-107] | > 100 µM |
| O=C1CC2(CCN(Cc3cccc4cccnc34)CC2)CC(=O)N1 [Compound I-329] | > 100 µM |
| COCc1cccc(N2C[C@@H]3C(=O)NC(=O)[C@@H]3C2)c1 [Compound I-181] | > 100 µM |
| O=C1CC2(CCN(C(=O)c3cnco3)CC2)CC(=O)N1 [Compound I-353] | > 100 µM |
| O=C1CC2(CCN(C(=O)C3CC3)CC2)CC(=O)N1 [Compound I-362] | > 100 µM |

More lines, now with the values ahead:

| IC50 | Structure (SMILES) |
| --- | --- |
| > 100 µM | O=C1CC2(CCN(C(=O)c3cccc(C(F)(F)F)n3)CC2)CC(=O)N1 [Compound I-367] |
| > 100 µM | Cc1cccc(C(=O)N2CCC3(CC2)CC(=O)NC(=O)C3)c1 [Compound I-365] |
| < 10 µM | CC(C)(C)OC(=O)NCCCCCC#Cc1ccccc1Oc1cccc2c1C(=O)NC(=O)C2=O [Compound I-242] |
| > 100 µM | Cn1c(=O)[nH]c(=O)c2c(Br)cccc21 [Compound I-60, 5-bromo-1-methyl-3H-quinazoline-2,4-dione] |
| > 100 µM | COc1cccc(C(=O)N2C[C@@H]3C(=O)NC(=O)[C@@H]3C2)n1 [Compound I-165] |
| > 100 µM | O=C1CC2(CCN(c3cccc4cccnc34)CC2)CC(=O)N1 [Compound I-109] |
| > 100 µM | O=C1CC2(CCN(c3cccc4ncccc34)CC2)CC(=O)N1 [Compound I-94] |
| 30 to 100 µM | Cc1nn(C)c2nc(N3CCC4(CC3)CC(=O)NC(=O)C4)sc12 [Compound I-376] |
| > 100 µM | O=C1CC2(CCN(c3ccc(F)cc3Cl)CC2)CC(=O)N1 [Compound I-110] |
| > 100 µM | CN(C)C(=O)c1cccc(N2C[C@@H]3C(=O)NC(=O)[C@@H]3C2)c1 [Compound I-178] |
| > 100 µM | O=C1NC(=O)[C@@H]2CN(c3ccccc3)C[C@H]12 [Compound I-158] |
| > 100 µM | CN1C(=O)C2(CC(=O)NC2=O)c2cc(N)ccc21 (stereo not drawn) [Compound I-183] |
| > 100 µM | O=C1NC(=O)[C@@H]2CN(C(=O)c3ccnc(Cl)c3)C[C@H]12 [Compound I-301] |
| > 100 µM | O=C1CC2(CCN(C(=O)c3ccc(O)cc3)CC2)CC(=O)N1 [Compound I-369] |
| > 100 µM | NC(=O)c1ccccc1N1C[C@@H]2C(=O)NC(=O)[C@@H]2C1 [Compound I-170] |
| > 100 µM | Nc1ccc2c(c1)C1(CC(=O)NC1=O)C(=O)N2 (stereo not drawn) [Compound I-173] |
| 30 to 100 µM | Cc1ccc(N2C[C@@H]3C(=O)NC(=O)[C@@H]3C2)cc1 [Compound I-130] |
